For this experiment, the target named is T1, HMG-CoA reductase (Rattus norvegicus, UniProt P51639).
T1 sequence (P51639 1-887): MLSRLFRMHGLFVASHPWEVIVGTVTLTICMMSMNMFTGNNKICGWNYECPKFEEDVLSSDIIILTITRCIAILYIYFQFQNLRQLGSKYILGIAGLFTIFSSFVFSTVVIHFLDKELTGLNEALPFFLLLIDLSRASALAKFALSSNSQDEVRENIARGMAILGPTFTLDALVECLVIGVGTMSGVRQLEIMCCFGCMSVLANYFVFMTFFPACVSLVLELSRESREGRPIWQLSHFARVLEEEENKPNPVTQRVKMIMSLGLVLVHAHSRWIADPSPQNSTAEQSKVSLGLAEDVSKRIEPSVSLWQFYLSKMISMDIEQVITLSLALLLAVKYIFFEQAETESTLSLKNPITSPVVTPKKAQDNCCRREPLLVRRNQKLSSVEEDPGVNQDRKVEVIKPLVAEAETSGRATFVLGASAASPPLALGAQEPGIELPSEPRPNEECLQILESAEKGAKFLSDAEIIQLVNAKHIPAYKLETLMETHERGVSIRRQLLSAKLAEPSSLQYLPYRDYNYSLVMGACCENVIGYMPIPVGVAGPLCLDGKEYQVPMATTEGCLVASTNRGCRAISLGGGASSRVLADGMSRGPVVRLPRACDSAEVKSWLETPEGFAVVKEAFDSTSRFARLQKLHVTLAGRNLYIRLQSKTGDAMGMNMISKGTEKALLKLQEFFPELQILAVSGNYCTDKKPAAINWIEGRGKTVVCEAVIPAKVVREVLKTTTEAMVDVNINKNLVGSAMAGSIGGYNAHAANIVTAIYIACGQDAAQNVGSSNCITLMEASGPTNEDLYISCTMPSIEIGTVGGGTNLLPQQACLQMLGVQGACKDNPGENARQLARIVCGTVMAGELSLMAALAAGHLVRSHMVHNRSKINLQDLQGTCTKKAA
As to the kind of experiment: intrinsic HMG-CoA reductase inhibition, in vitro protocol of J. Med. Chem., 1985, 28, page 347. It is filed as biochemical. As to conditions: in vitro protocol described in J. Med. Chem., 1985, 28, page 347. How it is done: The intrinsic HMG-CoA reductase inhibition activity of the claimed compounds is measured in the in vitro protocol described is J. Med. Chem., 1985, 28, page 347.

Molecules are shown by their SMILES. pIC50: −log10 of the molar value.

We go through one compound from patent US4738982A, “HMG-CoA reductase inhibitors” (Merck & Co., Inc., priority 1986, dated 1988).

As to `CC[C@H](C)C(=O)O[C@H]1C[C@@H](C)CC2=CC(O)[C@H](C)C(CC[C@@H](O)C[C@@H](O)CC(=O)O)=C21` (stereo partly shown), the pIC50 (as a rule, −log10 of the IC50, conventionally taken in molar units) is 6.26.
